For orientation: melting point means the temperature of the solid-liquid transition.

This is an account of results in patent publication US8778974B2, “Trisubstituted 1,2,4 triazoles” (Janssen Pharmaceutica NV, priority 2008, dated 2014).

In data set [1] the target is T1, hα7-wt nAChR-expressing cells (Homo sapiens, UniProt P36544).
T1 construct: expressed in transfected cells; host or cells: hα7-wt nAChR-expressing cells
The data set can be described thus: Ca2+ flux imaging (FDSS) (Protocol B), PAM activity with choline 100 μM. The conditions noted are these: according to Ex. D.1b; read-out: % Efficacy. The class given is cell-based. The method, then: Ca^2+ Flux Imaging (FDSS) (Protocol B)
• a) Assay buffer • Hanks buffered saline solution (HBSS, Invitrogen, Belgium), supplemented with 10 mM HEPES (Invitrogen, Belgium), CaCl2 to a final concentration of 5 mM, 0.1% Bovine serum albumin (Sigma-Aldrich NV, Belgium). • b) Calcium-sensitive dye—Fluo-4AM • Fluo-4AM (Molecular Probes, USA) was dissolved in DMSO containing 10% Pluronic acid (Molecular Probes, USA) to give a stock solution which was diluted in assay buffer supplemented with 5 mM probenicid (Sigma, Al-drich NV, Belgium) to give a final concentration of 2 μM. • c) 384-well plates • Black 384 well plate black/clear plates, PDL pre-coated (Corning, Incorporated, USA) • d) Calcium flux measurement • A Functional drug screening system (FDSS, Hamamatsu) was used to measure intracellular free-calcium flux signals. Method
Monolayers of hα7-wt nAChR-expressing cells were grown in multi-well plates, in particular black-sided, transparent bottomed 384 well plates coated with poly-D-lysine for 24 hours prior to loading with a fluorescent calcium indicator, in a particular embodiment loading with fluo-4AM for up to 120 minutes.
PAM activity was detected in real time by applying the compounds to be tested to the loaded cells along with a α7 nicotinic receptor agonist during constant monitoring of cellular fluorescence in a FDSS. Compounds giving peak fluorescent responses greater than the response due to agonist alone, were considered to be α7 nAChR PAM's. In a particular embodiment, the α7 nicotinic receptor agonist was choline, a more particular embodiment choline applied at a sub-maximal concentration of 100 μM. In a further setting of the present invention the compounds to be tested were applied prior to the α7 nicotinic receptor agonist, in a particular embodiment up to 10 minutes prior to the agonist.
A control response to choline was calculated on each plate from the difference in peak in fluorescence in wells receiving either choline or assay buffer alone. Compounds of the present invention were tested at a concentration range from 0.01 μM to 30 μM. Compounds were considered to have an interesting activity when they potentiated the choline signal at least with 500% when tested at a concentration of 30 μM (the efficacy of 100 μM choline was defined as 100% in the absence of a PAM). The compounds also have a potentiating effect on the response to choline when measured by whole-cell patch clamp electrophysiology in GH4Cl cells stably over-expressing the human wild-type α7 receptor.
A general note: A change in cytosolic calcium serves as a functional read-out for many receptors and channels.

In data set [2] the target is T2, hα7-wt nAChR-expressing GH4Cl cells (Homo sapiens, UniProt P36544).
T2 construct: expressed in transfected cells
T2 sequence (P36544 23-502): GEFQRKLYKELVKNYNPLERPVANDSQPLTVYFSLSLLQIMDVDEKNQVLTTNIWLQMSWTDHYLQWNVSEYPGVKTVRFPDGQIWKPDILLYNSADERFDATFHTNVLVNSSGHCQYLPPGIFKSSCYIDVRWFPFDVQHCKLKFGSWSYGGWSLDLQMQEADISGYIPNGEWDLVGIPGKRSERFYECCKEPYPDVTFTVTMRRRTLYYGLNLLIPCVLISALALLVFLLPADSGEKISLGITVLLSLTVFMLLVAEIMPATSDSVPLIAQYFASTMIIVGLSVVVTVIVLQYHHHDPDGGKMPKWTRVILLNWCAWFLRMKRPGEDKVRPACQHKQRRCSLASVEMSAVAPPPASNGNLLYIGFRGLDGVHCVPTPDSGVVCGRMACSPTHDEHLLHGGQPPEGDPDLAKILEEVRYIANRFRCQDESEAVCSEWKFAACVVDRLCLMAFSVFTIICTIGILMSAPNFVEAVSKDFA
Nature of the data set: Patch-clamp current recording (whole-cell), potentiation of choline 1 mM response, PAM type. The class given is cell-based. Also on record: key to Pam type: Type 0 compounds minimally enhance the effect size of the current elicited by 1 mM choline.; Type 1 compounds enhance the effect size of the current elicited by 1 mM choline but minimally alter the kinetics of the receptor.; Type 2 compounds enhance the effect size of the current elicited by 1 mM choline while reducing the rate and/or the extent of desensitization.; Type 3 compounds enhance the effect size of the current elicited by 1 mM choline. When tested at higher concentrations up to 10 μM they completely inhibit desensitization, in particular a 1 mM choline application of 250 milliseconds.; Type 4 compounds allow for an initial desensitization of the receptor followed by a re-opening of the receptor during agonist application. To be noted: for EC50: according to Ex. D.2, "<5" = no top plateau reached at maximal concentration, read-out: Potency (pEC50) (converted); for Pam type: patch-clamp current recording, 1 mM choline. Summed up:
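Whole-cell voltage clamp at −70 mV of GH4Cl cells expressing human α7 nAChR, with PAM and 1 mM choline co-applied by rapid-switching (<100 ms) microfluidics. External solution HEPES-buffered, 1 mM Ca, pH 7.3; CsCl-based internal. Compounds classified into PAM types by effect on current amplitude and desensitization kinetics.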

T1 sequence (P36544 23-502): as above

The molecule `CCNC(=O)Cc1nc(Nc2cc(F)cc(F)c2)nn1-c1cc(C)nc(C)c1` [E237] returned a melting point of 289 °C. In addition, the Emax in data set [1] is 522%. Further, the EC50 in data set [2] was 407 nM.
Take `CCNC(=O)Cc1nc(Nc2ccc(F)c(C(F)(F)F)c2)nn1-c1cc(C)nc(C)c1` [E224]: the melting point is 256.2 °C. The Emax in data set [1] is 600%. Besides, in data set [2], the EC50 was 204 nM and the Pam type stood at 1.
In the same order, the values of `CCNC(=O)Cc1nc(Nc2cc(F)c(F)c(F)c2)nn1-c1cc(C)nc(C)c1` [E215] are 296.1 °C, 658%, 214 nM and 2.
Molecule `CCNC(=O)Cc1nc(Nc2cc(F)cc(Cl)c2)nn1-c1cc(C)nc(C)c1` [E246] yielded a melting point of 290.2 °C. For the same molecule, in data set [1], the Emax turned out to be 494%. In data set [2], the EC50 is 275 nM.
`CNC(=O)Cc1nc(Nc2cc(F)cc(Cl)c2)nn1-c1cc(C)nc(C)c1` [E245]: the melting point was 280.7 °C. Further, the Emax in data set [1] came out at 614%. In addition, in data set [2], the EC50 was 398 nM.
With `Cc1cc(-n2nc(Nc3cc(F)c(F)c(F)c3)nc2CC(=O)NC2CC2)cc(C)n1` [E241], the melting point stood at 295.7 °C. The Emax in data set [1] turned out to be 653%. In addition, the EC50 in data set [2] was 138 nM.
In the same order, the values of `Cc1cc(-n2nc(Nc3ccc(F)c(Cl)c3)nc2CC(=O)NC2CCC2)cc(C)n1` [E231] are 273.9 °C, 606% and 57.5 nM.
For `CNC(=O)Cc1nc(Nc2ccc(OC)c(C(F)(F)F)c2)nn1-c1cc(C)nc(C)c1` [E227], the melting point came out at 263 °C. The Emax in data set [1] turned out to be 654%. Moreover, in data set [2], the EC50 was 457 nM and the Pam type worked out at 4.
The corresponding values for `Cc1cc(-n2nc(Nc3ccc(F)c(F)c3F)nc2CC(=O)NCC2CC2)cc(C)n1` [E214] are 213.7 °C, 730%, 132 nM and 2.
Turning to `CNC(=O)Cc1nc(Nc2cc(F)c(F)c(F)c2)nn1-c1cc(C)nc(C)c1` [E240], the melting point came to 297.4 °C. Also, the Emax in data set [1] worked out at 628%. Also, the EC50 in data set [2] is 490 nM.
